Drawing on US3954733A, “Naphthyridine-3-carboxamido-benzylpenicillins and salts thereof” (Sumitomo Chemical Company, Limited, priority 1973, dated 1976), this text covers MIC for 20 compounds.

SMILES strings stand for the structures. In brackets after ≈: the same amount, converted by molar mass.

Holding throughout (test): minimal inhibitory concentration, agar dilution method
What all share (assay type): cell-based
On the technique in general: Agar dilution tests growth on a series of plates holding different concentrations.

One experiment relates to Proteus vulgaris HV19.
The test system of the next experiment is Proteus miravilis GN2425.
A further experiment has as its system Escherichia coli NIHJ. An excerpt: (§1) When determined according to the agar dilution method, the penicillins (I) afford the minimal inhibitory concentrations against test microorganisms as shown in Table 2.
The subject of experiment [1] is Staphylococcus aureus 209P.
Excerpt: as §1

The subject of experiment [2] is Pseudomonas aeruginosa 104.
Excerpt: as §1

As a reminder, the MIC is the lowest concentration that inhibits growth of the organism. High values mean weaker potency, low ones greater potency. `CCOC(=O)Oc1ccc([C@@H](NC(=O)c2cnc3cccnc3c2OC(=O)OCC)C(=O)N[C@@H]2C(=O)N3[C@@H]2SC(C)(C)[C@@H]3C(=O)O)cc1` [Example 37]: the MIC stood at 0.025 µg/mL (≈ 0.0367 µM) in the experiment with Proteus vulgaris HV19; 1.56 µg/mL (≈ 2.29 µM) against Proteus miravilis GN2425; 1.56 µg/mL (≈ 2.29 µM) in the experiment on Escherichia coli NIHJ; 0.78 µg/mL (≈ 1.14 µM) in experiment [1]; 1.56 µg/mL (≈ 2.29 µM) in experiment [2].
Turning to `CC(C)(C)C(=O)Oc1ccc([C@@H](NC(=O)c2cnc3ccccc3c2O)C(=O)N[C@@H]2C(=O)N3[C@@H]2SC(C)(C)[C@@H]3C(=O)O)cc1` [Example 4, D-α-(4-hydroxyquinoline-3-carboxamido)-p-pivaloyloxybenzylpenicillin], the MIC against Proteus vulgaris HV19 came to 0.2 µg/mL (≈ 0.322 µM); in the experiment with Proteus miravilis GN2425 it was 6.25 µg/mL (≈ 10.1 µM); in the experiment with Escherichia coli NIHJ, 6.25 µg/mL (≈ 10.1 µM); in experiment [1], 0.39 µg/mL (≈ 0.628 µM); in experiment [2] it was 6.25 µg/mL (≈ 10.1 µM).
For `CCOC(=O)Oc1ccc([C@@H](NC(=O)c2cnc3ccc(SC)nc3c2O)C(=O)N[C@@H]2C(=O)N3[C@@H]2SC(C)(C)[C@@H]3C(=O)O)cc1` [Example 17], the MIC is 0.1 µg/mL (≈ 0.153 µM) with Proteus vulgaris HV19; 1.56 µg/mL (≈ 2.38 µM) in the experiment on Proteus miravilis GN2425; 1.56 µg/mL (≈ 2.38 µM) against Escherichia coli NIHJ; 0.78 µg/mL (≈ 1.19 µM) in experiment [1]; 1.56 µg/mL (≈ 2.38 µM) in experiment [2].
On to `CCOC(=O)Oc1c(C(=O)N[C@@H](C(=O)N[C@@H]2C(=O)N3[C@@H]2SC(C)(C)[C@@H]3C(=O)O)c2ccc(OC(=O)OCc3ccccc3)cc2)cnc2cccnc12` [Example 5, D-α-(4-ethoxycarbonyloxy-1,5-naphthyridine-3-carboxamido)-p-benzyloxycarbonyloxybenzylpenicillin], for which the MIC was found to be 0.05 µg/mL (≈ 0.0672 µM) in the experiment with Proteus vulgaris HV19; 3.13 µg/mL (≈ 4.21 µM) in the experiment on Proteus miravilis GN2425; 3.13 µg/mL (≈ 4.21 µM) against Escherichia coli NIHJ; 1.56 µg/mL (≈ 2.1 µM) in experiment [1]; 3.13 µg/mL (≈ 4.21 µM) in experiment [2].
With `Cc1ccc2c(O)c(C(=O)N[C@@H](C(=O)N[C@@H]3C(=O)N4[C@@H]3SC(C)(C)[C@@H]4C(=O)O)c3ccc(O)cc3)cnc2n1` [Example 7, D-α-(4-hydroxy-7-methyl-1,8-naphthyridine-3-carboxamido)-p-hydroxybenzylpenicillin], the MIC against Proteus vulgaris HV19 worked out at 0.05 µg/mL (≈ 0.0906 µM); in the experiment with Proteus miravilis GN2425, 3.13 µg/mL (≈ 5.67 µM); in the experiment with Escherichia coli NIHJ it was 1.56 µg/mL (≈ 2.83 µM); in experiment [1], 0.78 µg/mL (≈ 1.41 µM); in experiment [2], 1.56 µg/mL (≈ 2.83 µM).
For the compound `CC(C)COC(=O)Oc1ccc([C@@H](NC(=O)c2cnc3nc(N(C)C)ncc3c2O)C(=O)N[C@@H]2C(=O)N3[C@@H]2SC(C)(C)[C@@H]3C(=O)O)cc1` [Example 30], the MIC against Proteus vulgaris HV19 worked out at 0.05 µg/mL (≈ 0.0733 µM); against Proteus miravilis GN2425, 3.13 µg/mL (≈ 4.59 µM); with Escherichia coli NIHJ, 6.25 µg/mL (≈ 9.17 µM); in experiment [1], 0.78 µg/mL (≈ 1.14 µM); in experiment [2], 6.25 µg/mL (≈ 9.17 µM).
With `CCOC(=O)Oc1ccc([C@@H](NC(=O)c2cnc3cccnc3c2S)C(=O)N[C@@H]2C(=O)N3[C@@H]2SC(C)(C)[C@@H]3C(=O)O)cc1` [Example 39], the MIC with Proteus vulgaris HV19 worked out at 0.05 µg/mL (≈ 0.0799 µM); with Proteus miravilis GN2425, 1.56 µg/mL (≈ 2.49 µM); in the experiment with Escherichia coli NIHJ, 1.56 µg/mL (≈ 2.49 µM); in experiment [1] it was 0.78 µg/mL (≈ 1.25 µM); in experiment [2], 1.56 µg/mL (≈ 2.49 µM).
Take `CCOC(=O)Oc1ccc([C@@H](NC(=O)c2cnc3c(OC)nc(OC)nc3c2O)C(=O)N[C@@H]2C(=O)N3[C@@H]2SC(C)(C)[C@@H]3C(=O)O)cc1` [Example 36]: the MIC with Proteus vulgaris HV19 came to 0.05 µg/mL (≈ 0.0746 µM); in the experiment on Proteus miravilis GN2425, 3.13 µg/mL (≈ 4.67 µM); in the experiment with Escherichia coli NIHJ it was 3.13 µg/mL (≈ 4.67 µM); in experiment [1], 0.78 µg/mL (≈ 1.16 µM); in experiment [2] it was 3.13 µg/mL (≈ 4.67 µM).
`CC1(C)S[C@@H]2[C@H](NC(=O)[C@H](NC(=O)c3cnc4cccnc4c3O)c3ccc(O)c(Cl)c3)C(=O)N2[C@H]1C(=O)O` [Example 32]: the MIC worked out at 0.05 µg/mL (≈ 0.0874 µM) against Proteus vulgaris HV19; 6.25 µg/mL (≈ 10.9 µM) against Proteus miravilis GN2425; 3.13 µg/mL (≈ 5.47 µM) against Escherichia coli NIHJ; 0.78 µg/mL (≈ 1.36 µM) in experiment [1]; 3.13 µg/mL (≈ 5.47 µM) in experiment [2].
As to `COc1ccc2ncc(C(=O)N[C@@H](C(=O)N[C@@H]3C(=O)N4[C@@H]3SC(C)(C)[C@@H]4C(=O)O)c3ccc(O)cc3)c(O)c2n1` [Example 19], the MIC with Proteus vulgaris HV19 was 0.05 µg/mL (≈ 0.0881 µM); in the experiment with Proteus miravilis GN2425, 3.13 µg/mL (≈ 5.51 µM); against Escherichia coli NIHJ, 3.13 µg/mL (≈ 5.51 µM); in experiment [1] it was 0.78 µg/mL (≈ 1.37 µM); in experiment [2], 3.13 µg/mL (≈ 5.51 µM).
For the compound `CCOC(=O)Oc1ccc([C@@H](NC(=O)c2cnc3cc([N+](=O)[O-])ccc3c2O)C(=O)N[C@@H]2C(=O)N3[C@@H]2SC(C)(C)[C@@H]3C(=O)O)cc1` [Example 20], the MIC in the experiment on Proteus miravilis GN2425 turned out to be 6.5 µg/mL (≈ 9.94 µM); in the experiment with Escherichia coli NIHJ, 12.5 µg/mL (≈ 19.1 µM); in experiment [1], 0.78 µg/mL (≈ 1.19 µM); in experiment [2] it was 12.5 µg/mL (≈ 19.1 µM).
For the compound `CC1(C)S[C@@H]2[C@H](NC(=O)[C@H](NC(=O)c3cnc4ccccc4c3O)c3cccc(O)c3)C(=O)N2[C@H]1C(=O)O` [Example 13], the MIC in the experiment with Proteus vulgaris HV19 was found to be 0.2 µg/mL (≈ 0.373 µM); in the experiment with Proteus miravilis GN2425, 3.13 µg/mL (≈ 5.83 µM); in the experiment with Escherichia coli NIHJ it was 6.25 µg/mL (≈ 11.6 µM); in experiment [1] it was 0.78 µg/mL (≈ 1.45 µM); in experiment [2], 6.25 µg/mL (≈ 11.6 µM).
In the case of `CCOC(=O)Oc1ccc([C@@H](NC(=O)c2cnc3cc(Cl)ccc3c2O)C(=O)N[C@@H]2C(=O)N3[C@@H]2SC(C)(C)[C@@H]3C(=O)O)cc1` [Example 10], the MIC turned out to be 0.78 µg/mL (≈ 1.21 µM) against Proteus miravilis GN2425 and 0.39 µg/mL (≈ 0.606 µM) in experiment [1].
As to `Cc1nc(C)c2c(O)c(C(=O)N[C@@H](C(=O)N[C@@H]3C(=O)N4[C@@H]3SC(C)(C)[C@@H]4C(=O)O)c3ccc(O)cc3)cnc2n1` [Example 31], the MIC against Proteus vulgaris HV19 came out at 0.1 µg/mL (≈ 0.176 µM); against Proteus miravilis GN2425, 3.13 µg/mL (≈ 5.52 µM); in the experiment with Escherichia coli NIHJ, 3.13 µg/mL (≈ 5.52 µM); in experiment [1], 0.78 µg/mL (≈ 1.38 µM); in experiment [2], 3.13 µg/mL (≈ 5.52 µM).
Take `CC1(C)S[C@@H]2[C@H](NC(=O)[C@H](NC(=O)c3cnc4cc(C(F)(F)F)ccc4c3O)c3ccc(O)cc3)C(=O)N2[C@H]1C(=O)O` [Example 11]: the MIC in the experiment on Proteus miravilis GN2425 came to 3.13 µg/mL (≈ 5.18 µM); against Escherichia coli NIHJ it was 12.5 µg/mL (≈ 20.7 µM); in experiment [2], 12.5 µg/mL (≈ 20.7 µM).
For the compound `CC1(C)S[C@@H]2[C@H](NC(=O)C(C(=O)O)c3ccccc3)C(=O)N2[C@H]1C(=O)O` (stereo partly shown) [Carbenicillin, reference compound], the MIC in the experiment on Proteus miravilis GN2425 was 0.78 µg/mL (≈ 2.06 µM); with Escherichia coli NIHJ it was 12.5 µg/mL (≈ 33 µM); in experiment [1], 0.78 µg/mL (≈ 2.06 µM); in experiment [2], 50 to 100 µg/mL (≈ 132 to 264 µM).
As to `CC1(C)S[C@@H]2[C@H](NC(=O)C(NC(=O)c3cnc4cccnc4c3O)c3ccc(O)cc3)C(=O)N2[C@H]1C(=O)O` (mixture of isomers) [Example 2, DL-α-(4-hydroxy-1,5-naphthyridine-3-carboxamido)-p-hydroxybenzylpenicillin], the results for the MIC with Proteus vulgaris HV19, against Proteus miravilis GN2425 and in the experiment on Escherichia coli NIHJ were 0.025 µg/mL, 3.13 µg/mL and 3.13 µg/mL, respectively.
For `CC1(C)S[C@@H]2[C@H](NC(=O)[C@H](NC(=O)c3nnc4ccccc4c3O)c3ccc(O)cc3)C(=O)N2[C@H]1C(=O)O` [Example 8, D-α-(4-hydroxycinnoline-3-carboxamido)-p-hydroxybenzylpenicillin], the minimal inhibitory concentration (MIC) amounted to 12.5 µg/mL (≈ 23.3 µM) with Proteus miravilis GN2425, 12.5 µg/mL (≈ 23.3 µM) in the experiment on Escherichia coli NIHJ, 0.78 µg/mL (≈ 1.45 µM) in experiment [1] and 12.5 µg/mL (≈ 23.3 µM) in experiment [2].
Consider `CC1(C)S[C@@H]2[C@H](NC(=O)[C@H](NC(=O)c3cnc4ccccc4c3O)c3ccc(O)c(Cl)c3)C(=O)N2[C@H]1C(=O)O` [Example 14], for which the MIC with Proteus miravilis GN2425 was determined as 6.25 µg/mL (≈ 10.9 µM); against Escherichia coli NIHJ, 6.25 µg/mL (≈ 10.9 µM); in experiment [1] it was 0.78 µg/mL (≈ 1.37 µM); in experiment [2], 6.25 µg/mL (≈ 10.9 µM).
As for `CCOC(=O)Oc1ccc([C@@H](NC(=O)c2cnc3cc4c(cc3c2S)OCO4)C(=O)N[C@@H]2C(=O)N3[C@@H]2SC(C)(C)[C@@H]3C(=O)O)cc1` [Example 38], the MIC in the experiment with Proteus vulgaris HV19 is 0.2 µg/mL (≈ 0.299 µM); in the experiment on Proteus miravilis GN2425, 3.13 µg/mL (≈ 4.68 µM); in experiment [1], 0.39 µg/mL (≈ 0.583 µM); in experiment [2], 3.13 µg/mL (≈ 4.68 µM).
